Calls of active or inactive are those of the source. The rule behind the calls is not given here.

In experiment [1] the test system is Bacillus subtilis. Description: Antimicrobial activity against Bacillus subtilis ATCC 6633 measured after 24 hrs at 37 degC. The class given is functional. As to conditions: ATCC 6633, 24 h.
The subject of experiment [2] is Bacillus subtilis. Description: Antimicrobial activity against Bacillus subtilis ATCC 6633 assessed as photodynamic inactivation measured as lethality at 10 uM. The class given is functional.

The term MIC denotes the least concentration at which growth counts as inhibited. `O=C(NCC(O)C[n+]1cccc(CC(O)(P(=O)(O)O)P(=O)(O)O)c1)c1ccccc1` (stereo not drawn) showed an MIC in experiment [1] of over 128 µg/mL. With `O=C(O)c1cc2c(ccc3ccccc32)oc1=O`, the result in experiment [2] was inactive. `O=C(NCC(O)C[n+]1cccc(CC(O)(P(=O)(O)O)P(=O)(O)O)c1)c1ccccc1O` (stereo not drawn): in experiment [1], the MIC was over 128 µg/mL. For `O=C(O)c1cc2ccccc2oc1=O`, the outcome in experiment [2] was inactive. Consider `O=C(NCC(O)C[n+]1cccc(CC(O)(P(=O)(O)O)P(=O)(O)O)c1)c1cc2ccccc2oc1=O` (stereo not drawn), for which the Activity in experiment [2] stood at 91%. Besides, the MIC in experiment [1] was over 128 µg/mL. For the compound `O=C(NCC(O)C[n+]1cccc(CC(O)(P(=O)(O)O)P(=O)(O)O)c1)c1cc2c(ccc3ccccc32)oc1=O` (stereo not drawn), the Activity in experiment [2] was found to be 47%. Also, the minimal inhibitory concentration (MIC) in experiment [1] was over 128 µg/mL.

The values are drawn from ChEMBL document CHEMBL2331107, “Novel fluorescent risedronates: synthesis, photodynamic inactivation and imaging of Bacillus subtilis” (2013).
